For one compound, Normal melting temperature results are on record in the NIST ThermoML archive (doi:10.1021/je700591h).

For this series the following is noted: Crystal.

± gives the expanded uncertainty stated by the source.

Turning to `C[S+](C)[O-]` [dimethyl sulfoxide], the Normal melting temperature amounted to 18.51 ± 6 °C.
